Results published in patent US6444617B1, “Fused-heterocycle dicarboxylic acid diamide derivatives or salts thereof, herbicide and usage thereof” (Nihon Nohyaku Co., Ltd., priority 1998, dated 2002).

Legend:
Type in all cases: in vivo
[1] = system: barnyard grass (Echinochloa crus-galli Beauv.); assay: Test Example 1: herbicidal effect on paddy field weeds before emergence; details: Dosage 5 kg/ha
Outline: (§1)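 Soil in pots is brought to paddy state and seeded with barnyard grass and bulrush; before germination, the soil receives a predetermined dosage of test compound in solution. After twenty-one days, control rate relative to untreated pots is calculated and graded.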

[2] = system: bulrush (Scirpus juncoides Roxb.); assay: as above; details: Dosage 5 kg/ha
Outline: as §1

[3] = system: barnyard grass (Echinochloa crus-galli Beauv.); assay: Test Example 2: herbicidal effect on paddy field weeds after emergence; details: Dosage 5 kg/ha; one-leaved stage; 21 days after treatment
Outline: (§2)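 Weeds were sown in 1/10000 are pots of soil flooded to paddy conditions and grown to the one-leaf stage, then the soil was treated with a solution of compound at a predetermined dosage.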

[4] = system: bulrush (Scirpus juncoides Roxb.); assay: as above; details: Dosage 5 kg/ha; one-leaved stage; 21 days after treatment
Outline: as §2

[5] = system: monochoria (Monochoria vaginalis Presl); assay: as above; details: Dosage 5 kg/ha; one-leaved stage; 21 days after treatment
Outline: as §2

[6] = system: barnyard grass (Echinochloa crus-galli Beauv.), Ec; assay: Test Example 3: herbicidal effect on upland weeds before emergence; details: dosage 5 kg/ha
Outline: (§3)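 Pre-emergence spray of liquid prep, compound at set concentration; read at 14 d post-treatment; weed-kill rate calculated, effect graded.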

[7] = system: bird's eye speedwell (Veronica persica Poir.), Vp; assay: as above; details: dosage 5 kg/ha
Outline: as §3

[8] = system: cleavers (Galium aparine L.), Ga; assay: as above; details: dosage 5 kg/ha
Outline: as §3

[9] = system: cocklebur (Xanthium strumarium L.), Xs; assay: as above; details: dosage 5 kg/ha
Outline: as §3

[10] = system: forxtail grass (Alopecurus aequalis var. amurensis Ohwi), Am; assay: as above; details: foxtail grass, dosage 5 kg/ha
Outline: as §3

[11] = system: velvetleaf (Abutilon theophtasti L.), At; assay: as above; details: dosage 5 kg/ha
Outline: as §3

soybean plant (So) = assay: Test Example 3: phytotoxicity to upland crop plants, treatment before emergence; details: dosage 5 kg/ha
Outline: (§4)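 Compound formulated as a liquid agent at a prescribed concentration is sprayed before crop emergence. After fourteen days, damage to soybean and wheat is examined and rated by a judgment criterion.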

wheat (Wh) = assay: as above; details: dosage 5 kg/ha
Outline: as §4

[12] = system: barnyard grass (Echinochloa crus-galli Beauv.), Ec; assay: Test Example 4: herbicidal effect on upland weeds after emergence; details: dosage 5 kg/ha; sprayed after emergence; judged 14 days after treatment
Outline: (§5)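 Scores of weed-killing rate, with crop phytotoxicity, come from inspection 14 days after plants in soil vats, grown to specified leaf stages, are sprayed with a formulation holding the compound at a prescribed concentration.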

[13] = system: bird's eye speedwell (Veronica persica Poir.), Vp; assay: as above; details: dosage 5 kg/ha; sprayed after emergence; judged 14 days after treatment
Outline: as §5

[14] = system: cleavers (Galium aparine L.), Ga; assay: as above; details: dosage 5 kg/ha; sprayed after emergence; judged 14 days after treatment
Outline: as §5

[15] = system: cocklebur (Xanthium strumarium L.), Xs; assay: as above; details: dosage 5 kg/ha; sprayed after emergence; judged 14 days after treatment
Outline: as §5

[16] = system: forxtail grass (Alopecurus aequalis var. amurensis Ohwi), Am; assay: as above; details: dosage 5 kg/ha; sprayed after emergence; judged 14 days after treatment
Outline: as §5

[17] = system: velvetleaf (Abutilon theophtasti L.), At; assay: as above; details: dosage 5 kg/ha; sprayed after emergence; judged 14 days after treatment
Outline: as §5

soybean plant = assay: Test Example 4: phytotoxicity to upland crop plants, treatment after emergence; details: dosage 5 kg/ha, sprayed after emergence, judged 14 days after treatment
Outline: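 Upland weeds and crop plants (soybean, wheat) are grown from seed in soil until they reach given leaf stages, then treated by spraying with the compound-containing agent; effects are judged two weeks later.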

wheat = assay: as above; details: dosage 5 kg/ha, sprayed after emergence, judged 14 days after treatment
Outline: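 Weeds, soybean and wheat were sown in soil-filled vats, covered with soil and grown to set leaf stages before a post-emergence spray of an agent containing the compound at a prescribed concentration. Weed-killing rate and crop phytotoxicity were assessed 14 days after treatment.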

SMILES	Pre-emergence treatment Barnyard grass (herbicidal effect) [1]	Pre-emergence treatment Bulrush (herbicidal effect) [2]	Post-emergence treatment Barnyard grass (herbicidal effect) [3]	Post-emergence treatment Bulrush (herbicidal effect) [4]	Post-emergence treatment Monochoria (herbicidal effect) [5]	Herbicidal effect Ec [6]	Herbicidal effect Vp [7]	Herbicidal effect Ga [8]	Herbicidal effect Xs [9]	Herbicidal effect Am [10]	Herbicidal effect At [11]	Phytotoxicity So (soybean plant (So))	Phytotoxicity Wh (wheat (Wh))	Herbicidal effect Ec [12]	Herbicidal effect Vp [13]	Herbicidal effect Ga [14]	Herbicidal effect Xs [15]	Herbicidal effect Am [16]	Herbicidal effect At [17]	Phytotoxicity So (soybean plant)	further results
CCCNC(=O)c1nc2ccn(OC)c2cc1C(=O)Nc1c(CC)ccc(Cl)c1CC [compound 895]	5 (Weed-killing rate is 100%.)	5 (Weed-killing rate is 100%.)	5 (Weed-killing rate is 100%.)	5 (Weed-killing rate is 100%.)	5 (Weed-killing rate is 100%.)	5 (Weed-killing rate is 100%.)	5 (Weed-killing rate is 100%.)	5 (Weed-killing rate is 100%.)	5 (Weed-killing rate is 100%.)	5 (Weed-killing rate is 100%.)	5 (Weed-killing rate is 100%.)	4 (Crop-killing rate is 90-99%.)	5 (Crop-killing rate is 100%.)	5 (Weed-killing rate is 100%.)	5 (Weed-killing rate is 100%.)	5 (Weed-killing rate is 100%.)	5 (Weed-killing rate is 100%.)	5 (Weed-killing rate is 100%.)	5 (Weed-killing rate is 100%.)	4 (Crop-killing rate is 90-99%.)	Phytotoxicity Wh (wheat): 5 (Crop-killing rate is 100%.)
CCc1ccc(Cl)c(CC)c1NC(=O)c1cc2ccccc2nc1C(=O)NC(C)(C)C [359-4]	5 (Weed-killing rate is 100%.)	5 (Weed-killing rate is 100%.)	5 (Weed-killing rate is 100%.)	5 (Weed-killing rate is 100%.)	5 (Weed-killing rate is 100%.)	5 (Weed-killing rate is 100%.)	5 (Weed-killing rate is 100%.)	5 (Weed-killing rate is 100%.)	5 (Weed-killing rate is 100%.)	5 (Weed-killing rate is 100%.)	5 (Weed-killing rate is 100%.)	2 (Crop-killing rate is 40-69%.)	0 (Crop-killing rate is 0-20% (No Phytotoxicity).)	5 (Weed-killing rate is 100%.)	5 (Weed-killing rate is 100%.)	5 (Weed-killing rate is 100%.)	5 (Weed-killing rate is 100%.)	5 (Weed-killing rate is 100%.)	5 (Weed-killing rate is 100%.)	4 (Crop-killing rate is 90-99%.)	Phytotoxicity Wh (wheat): 2 (Crop-killing rate is 40-69%.)
Cc1c(Cl)cccc1NC(=O)c1cc2c(C)noc2nc1C(=O)NC1CCCC1 [compound 1085]	5 (Weed-killing rate is 100%.)	5 (Weed-killing rate is 100%.)	5 (Weed-killing rate is 100%.)	5 (Weed-killing rate is 100%.)	5 (Weed-killing rate is 100%.)	5 (Weed-killing rate is 100%.)	5 (Weed-killing rate is 100%.)	5 (Weed-killing rate is 100%.)	5 (Weed-killing rate is 100%.)	5 (Weed-killing rate is 100%.)	5 (Weed-killing rate is 100%.)	4 (Crop-killing rate is 90-99%.)	5 (Crop-killing rate is 100%.)	5 (Weed-killing rate is 100%.)	5 (Weed-killing rate is 100%.)	4 (Weed-killing rate is 90-99%.)	5 (Weed-killing rate is 100%.)	5 (Weed-killing rate is 100%.)	5 (Weed-killing rate is 100%.)	4 (Crop-killing rate is 90-99%.)	Phytotoxicity Wh (wheat): 5 (Crop-killing rate is 100%.)
CCCNC(=O)c1nc2cc3c(cc2cc1C(=O)Nc1c(CC)ccc(Cl)c1CC)OCO3 [compound 334]	5 (Weed-killing rate is 100%.)	4 (Weed-killing rate is 90-99%.)	4 (Weed-killing rate is 90-99%.)	4 (Weed-killing rate is 90-99%.)	5 (Weed-killing rate is 100%.)	4 (Weed-killing rate is 90-99%.)	4 (Weed-killing rate is 90-99%.)	3 (Weed-killing rate is 70-89%.)	3 (Weed-killing rate is 70-89%.)	4 (Weed-killing rate is 90-99%.)	5 (Weed-killing rate is 100%.)	0 (Crop-killing rate is 0-20% (No Phytotoxicity).)	2 (Crop-killing rate is 40-69%.)	4 (Weed-killing rate is 90-99%.)	4 (Weed-killing rate is 90-99%.)	3 (Weed-killing rate is 70-89%.)	3 (Weed-killing rate is 70-89%.)	3 (Weed-killing rate is 70-89%.)	4 (Weed-killing rate is 90-99%.)	1 (Crop-killing rate is 1-39%.)	Phytotoxicity Wh (wheat): 2 (Crop-killing rate is 40-69%.)
CCNC(=O)c1nc2ccn(OC)c2cc1C(=O)Nc1c(CC)ccc(Cl)c1CC [compound 894]	5 (Weed-killing rate is 100%.)	5 (Weed-killing rate is 100%.)	5 (Weed-killing rate is 100%.)	5 (Weed-killing rate is 100%.)	5 (Weed-killing rate is 100%.)	5 (Weed-killing rate is 100%.)	5 (Weed-killing rate is 100%.)	5 (Weed-killing rate is 100%.)	5 (Weed-killing rate is 100%.)	5 (Weed-killing rate is 100%.)	5 (Weed-killing rate is 100%.)	4 (Crop-killing rate is 90-99%.)	5 (Crop-killing rate is 100%.)	5 (Weed-killing rate is 100%.)	5 (Weed-killing rate is 100%.)	5 (Weed-killing rate is 100%.)	4 (Weed-killing rate is 90-99%.)	5 (Weed-killing rate is 100%.)	5 (Weed-killing rate is 100%.)	4 (Crop-killing rate is 90-99%.)	Phytotoxicity Wh (wheat): 5 (Crop-killing rate is 100%.)
